Reference: patent US6541463B1, “Inhibitors of type 5 and type 3 17β-hydroxysteroid dehydrogenase and methods for their use” (Endorecherche, Inc., priority 1998, dated 2003)

Experiments:
[1] = target: T1, human type 2 17β-hydroxysteroid dehydrogenase (Homo sapiens, UniProt P37059); assay: Enzymatic assay for type 2 17β-HSD; type: biochemical; conditions: for IC50 / Inhibition Type 2 17β-HSD Activity [% Inh. at 3 · 10^−8M] / inhibition: Table 4′; for IC50: read-out: Inhibition Type 2 17β-HSD Activity IC50; for Inhibition Type 2 17β-HSD Activity [% Inh. at 3 · 10^−8M] / inhibition: 3 · 10^−8M; for inhibition: read-out: Inhibition Type 2 17β-HSD Activity [% Inh. at 3 · 10^−8M]
T1 construct: expressed in transfected cells; host or cells: 293 cells, transient transfection; microsomal fraction (100 000×g pellet)
T1 sequence (P37059 1-387): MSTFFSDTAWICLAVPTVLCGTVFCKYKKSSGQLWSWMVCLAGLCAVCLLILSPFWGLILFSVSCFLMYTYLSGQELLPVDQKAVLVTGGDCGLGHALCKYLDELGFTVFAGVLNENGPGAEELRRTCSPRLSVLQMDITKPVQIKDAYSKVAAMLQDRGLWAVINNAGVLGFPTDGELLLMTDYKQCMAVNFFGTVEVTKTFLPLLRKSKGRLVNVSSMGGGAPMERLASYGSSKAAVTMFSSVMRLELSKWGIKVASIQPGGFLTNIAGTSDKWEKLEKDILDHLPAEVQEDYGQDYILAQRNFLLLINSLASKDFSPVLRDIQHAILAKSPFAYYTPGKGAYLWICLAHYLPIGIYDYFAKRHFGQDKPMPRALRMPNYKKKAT
In short: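 Enzymes from transiently transfected 293 cells (cytosol for type 1, microsomes for types 2 and 3 17β-HSD) were incubated 1 h at 37° C in pH 7.4 phosphate/20% glycerol with 2 mM NADPH or NAD+ and 0.1 μM 14C-substrate (estrone, 4-dione, or DHT for 3α-HSD); metabolites quantified by TLC; preliminary % inhibition at 3.10^−6M.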

[2] = system: ZR-75-1 cells; assay: Estrogenic activity: stimulation of proliferation of ZR-75-1 cells; type: cell-based, human
Protocol: […] The manner in which the stimulation is determined is described in “Other Tests; C-Estrogenic/Antiestrogenic activity” Lower numbers are desirable. ND means that a determination was not done.
(§1) Estrogenic/antiestrogenic activity of some preferred compounds has been measured using the […] human breast cancer cell line as described in more detail below.
(§2) All media and medium supplments were purchased from Sigma. Cells were subcultured weekly by treatment with a pancreatic solution containing EDTA (0.2 g/L). The cell cultures used for the experiments herein describied were between passages 89 and 94.
(§3) Cells in their logarithmic growth phase were harvested, briefly centrifuged, and resuspended in RPMI 1640. Cells were then plated in triplicate in LIMBRO 24-well plastic culture plates (2 cm^2/well). Since plating density influences the effect of hormones on ZR-75-1 cell growth, cells were plated at a density of 1×10^4 cells/well. […] Control cultures received the ethanol vehicle only. Cells were then allowed to grow at 37° C. for 10 days with medium changes (of identical composition) every 2 days.
(§4) After E2 and/or antiestrogen treatment, cells were harvested by addition of 0.5 ml of a pancreatin solution (Sigma) for 5-10 min at 37° C. before addition of 0.5 mnl of RPMI 1640 containing 5% dextran coated […] bovine serum in order to block enzymatic action. Cell number (0.10 ml aliquot) was determined by measurement of DNA content as previously described (Simard et al., Endocrinology 126: 3223-3231,1990).

[3] = system: ZR-75-1 cells; assay: Antiestrogenic activity: inhibition of E2-induced proliferation of ZR-75-1 cells; type: cell-based, human; set-up: ZR-75-1 Activity, E2 / ZR-75-1 Activity E2 E^−6: unit not given here; conditions: for ZR-75-1 Activity E2 E^−6: with E2, E^−6
Protocol: The manner in which the inhibition is determined is described in “Other Tests; C-Estrogenic/Antiestrogenic Activity”. Lower numbers are desirable. ND means that a determination was not done.
as §1, §2, §3, §4

[4] = Table 4′, E2-induced proliferation, 3E^−8

COCCOc1cc2c(cc1C#N)C1CC[C@@]3(C)C(CC[C@@]34CCC(C)(C)C(=O)O4)C1CC2 (stereo partly shown) [EM-1396]
IC50 [1]: > 10 µM | ZR-75-1 Activity, Basal E^−6 ([2]; Table 4′): 0% | ZR-75-1 Activity, Basal E^−8 ([2]; Table 4′): 0% | ZR-75-1 Activity, E2 3E^−8 [3, 4]: +12%

CC1(C)CCC2(CCC3C4CCc5cc(C(=O)OCc6ccccc6)ccc5C4CCC32C)OC1=O (stereo not shown) [EM-1398]
Inhibition Type 2 17β-HSD Activity [% Inh. at 3 · 10^−8M] ([1]; bracketed values): [64] %

CC1(C)CCC2(CCC3C4CCc5cc(O)c(C#N)cc5C4CCC32C)OC1=O (stereo not shown) [EM-01645]
inhibition ([1]; bracketed values): 38%

COC(=O)C1CCC2(CCC3C4CCc5cc(O)ccc5C4CCC32C)OC1=O [PB-132-146, 3-Hydroxy-1,3,5(10)-estratrien-17(R)-2′-(5′-methoxycarbonyl-6′-oxo)tetrahydropyran]
inhibition ([1]; bracketed values): 75% | ZR-75-1 Activity, Basal E^−6 ([2]; Table 4′): 91% | ZR-75-1 Activity, Basal E^−8 ([2]; Table 4′): 0% | ZR-75-1 Activity, E2 3E^−8 [3, 4]: 0%

CC1(C)CC[C@@]2(CCC3C4CCc5cc6oncc6cc5C4CC[C@@]32C)OC1=O (stereo partly drawn) [EM-1407-CS, 1,3,5(10)-estratrien-(2,3-oximino)-17(R)-spiro-2′-(5′,5′-dimethyl-6′-oxo)tetrahydropyran]
inhibition ([1]; bracketed values): 68%

CC1(C)CCC2(CCC3C4CCc5cc(O)c([N+](=O)[O-])cc5C4CCC32C)OC1=O (stereo not shown) [EM-1125-CS]
ZR-75-1 Activity, Basal E^−6 ([2]; Table 4′): 34% | ZR-75-1 Activity, Basal E^−8 ([2]; Table 4′): 10% | ZR-75-1 Activity, E2 3E^−8 [3, 4]: 0%

CCC(=O)O[C@]1(C(C)=O)CCC2C3C=C(C)C4=CC(=O)C[C@H](C)[C@]4(C)C3CC[C@@]21C (stereo partly shown) [CS-243]
ZR-75-1 Activity, Basal ([2]; E^−6, in %): 0 | ZR-75-1 Activity, Basal ([2]; E^−8, in %): 0 | ZR-75-1 Activity, E2 ([3]; E2): −57 | ZR-75-1 Activity, E2 ([3]; E2, E^−8): −60

CN(C)CCOc1ccc2c(c1)CCC1C2CCC2(C)C1CCC21CCC(C)(C)C(=O)O1 (stereo not shown) [EM-1389-CS]
IC50 [1]: > 10 µM

COC(=O)CCCC(=O)O[C@]1(C(C)=O)CC[C@H]2[C@@H]3C=C(C)C4=CC(=O)CC[C@]4(C)[C@H]3CC[C@@]21C [EM-1007, 6-Methyl-4,6-pregnadien-17α-ol-3,20-dione 4′-Carbomethoxybutyrate]
ZR-75-1 Activity, Basal ([2]; E^−6, in %): 0 | ZR-75-1 Activity, Basal ([2]; E^−8, in %): −8 | ZR-75-1 Activity, E2 ([3]; E2): −52 | ZR-75-1 Activity, E2 ([3]; E2, E^−8): −41

CC1(C)CC[C@@]2(CC[C@H]3[C@@H]4CCc5c(cc(Br)c(O)c5Br)[C@H]4CC[C@@]32C)OC1=O [EM-1382-CS]
Inhibition Type 2 17β-HSD Activity [% Inh. at 3 · 10^−8M] ([1]; bracketed values): [70] %

COCCOc1cc2c(cc1C(=O)O)C1CCC3(C)C(CCC34CCC(C)(C)C(=O)O4)C1CC2 [EM-1405, 2-Carboxy-3-(2″-methoxyethyloxy)-1,3,5(10)-estratrien-17(R)-spiro-2′-(5′,5′-dimethyl-6′-oxo)tetrahydropyran]
IC50 [1]: > 10 µM

COCCOc1cc2c(cc1F)C1CCC3(C)C(CCC34CCC(C)(C)C(=O)O4)C1CC2 (stereo not shown) [EM-1393-CS]
IC50 [1]: > 10 µM

COc1cc2c(cc1C)C1CCC3(C)C(CCC34CCC(C)(C)C(=O)O4)C1CC2 (stereo not shown) [EM-1412-CS]
IC50 [1]: > 10 µM

CN(C)C(=O)c1cc2c(cc1O)CCC1C2CCC2(C)C1CCC21CCC(C)(C)C(=O)O1 (stereo not shown) [EM-01661-B]
inhibition ([1]; bracketed values): 55%

CC(=O)O[C@]1(C(C)=O)CCC2C3C=C(C)C4=CC(=O)CC[C@]4(C)C3CC[C@@]21C (stereo partly shown) [megestrol acetate, reference compound]
ZR-75-1 Activity, E2 ([3]; E2): −81 | ZR-75-1 Activity, E2 ([3]; E2, E^−8): −70

CC1(C)CCC2(CCC3C4CCc5cc(O)c(C(N)=O)cc5C4CCC32C)OC1=O (stereo not shown) [EM-01660]
inhibition ([1]; bracketed values): 59%

CC1(C)CC[C@@]2(CCC3C4CCc5cc(C(=O)O)ccc5C4CC[C@@]32C)OC1=O (stereo partly drawn) [EM-1401, 3-Carboxy-1,3,5(10)-estratrien-17(R)-spiro-2′-(5′,5′-dimethyl-6′-oxo)tetrahydropyran]
inhibition ([1]; bracketed values): 76%

COc1ccc(CC(=O)O[C@]2(C(C)=O)CCC3C4C=C(C)C5=CC(=O)C=C[C@]5(C)C4CC[C@@]32C)cc1 (stereo partly shown) [EM-1291]
Inhibition Type 2 17β-HSD Activity [% Inh.] ([1]; at 3.10^-8M): [67] %

COc1cc2c(cc1C(F)(F)F)C1CCC3(C)C(CCC34CCC(C)(C)C(=O)O4)C1CC2 [EM-1409, 3-Methoxy-2-trifluoromethyl-1,3,5(10)-estratrien-17(R)-spiro-2′-(5′,5′-dimethyl-6′-oxo)tetrahydropyran]
inhibition ([1]; bracketed values): 4%

CC12CCC3c4ccc(F)cc4CCC3C1CCC21CCCC(=O)O1 (stereo not shown) [EM-1170-CS]
inhibition ([1]; bracketed values): 84%

COCCOc1cc2c(cc1C(=O)N(C)C)C1CCC3(C)C(CCC34CCC(C)(C)C(=O)O4)C1CC2 (stereo not shown) [EM-1413-CS]
inhibition ([1]; bracketed values): 69% | IC50 [1]: > 10 µM

C[C@]12CCC3c4cc([N+](=O)[O-])c(O)cc4CCC3C1CC[C@@]21CCCC(=O)O1 (stereo partly drawn) [EM-1124, 2-Nitro-1,3,5(10)-estraetriene-3-ol-17(R)-spiro-2′-(6′-oxo)tetrahydropyran]
ZR-75-1 Activity, Basal E^−6 ([2]; Table 4′): 12% | ZR-75-1 Activity, Basal E^−8 ([2]; Table 4′): 0% | ZR-75-1 Activity, E2 3E^−8 [3, 4]: 0%

COc1c(Br)cc2c(c1Br)CCC1C2CCC2(C)C1CCC21CCC(C)(C)C(=O)O1 (stereo not shown) [EM-1385-CS]
IC50 [1]: > 10 µM

COc1ccc2c(c1)C(=O)CC1C2CC[C@@]2(C)C1CC[C@@]21CCC(C)(C)C(=O)O1 (stereo partly shown) [EM-1394]
IC50 [1]: > 10 µM

CC12C=CC(=O)C=C1C=CC1C2CCC2(C)C(=O)C3(CCCCC3)CC12 (stereo not shown) [CS-204]
ZR-75-1 Activity, Basal E^−6 [2]: 0 | ZR-75-1 Activity, Basal E^−8 [2]: 0 | ZR-75-1 Activity, E2 3E^−8 ([3]; with E2, 3E^−8): 0 | ZR-75-1 Activity E2 E^−6 [3]: −25

CC(C)C[C@@H]1CC2C3C=CC4=CC(=O)CC[C@]4(C)C3CC[C@]2(C)C1=O (stereo partly shown) [EM-1273-CS]
ZR-75-1 Activity, Basal E^−6 [2]: 0 | ZR-75-1 Activity, Basal E^−8 [2]: 0 | ZR-75-1 Activity, E2 3E^−8 ([3]; with E2, 3E^−8): 0 | ZR-75-1 Activity E2 E^−6 [3]: −30

CC1(C)CCC2(CCC3C4CCc5c(cc(Cl)c(O)c5Cl)C4CCC32C)OC1=O (stereo not shown) [EM-1391-CS]
IC50 [1]: > 10 µM

COC(=O)c1cc2c(cc1O)CCC1C2CCC2(C)C1CCC21CCC(C)(C)C(=O)O1 (stereo not shown) [EM-01662]
inhibition ([1]; bracketed values): 70%

COCCOc1ccc2c(c1)C(=O)CC1C2CCC2(C)C1CCC21CCC(C)(C)C(=O)O1 (stereo not shown) [EM-1408-CS]
inhibition ([1]; bracketed values): 66%

CC1(C)CCC2(CCC3C4CCc5c(cc(Cl)c(OS(C)(=O)=O)c5Cl)C4CCC32C)OC1=O (stereo not shown) [EM-1392-CS]
IC50 [1]: > 10 µM

CC1(C)CC[C@@]2(CCC3C4CCc5cc(F)ccc5C4CC[C@@]32C)OC1=O (stereo partly shown) [EM-1157-CS]
IC50 [1]: > 10 µM

COCCOc1cc2c(cc1C(F)(F)F)[C@H]1CC[C@@]3(C)[C@@H](CC[C@@]34CCC(C)(C)C(=O)O4)[C@@H]1CC2 [EM-1438, 3-(2′-Methoxyethoxy)-2-trifluoromethyl-1,3,5(10)-estratrien-17(R)-spiro-2′-(5′,5′-dimethyl-6′-oxo)tetrahydropyran]
Inhibition Type 2 17β-HSD Activity [% Inh. at 3 · 10^−8M] ([1]; bracketed values): [72] %

CC1(C)CCC2(CCC3C4CCc5ccccc5C4CCC32C)OC1=O (stereo not shown) [CS-224]
ZR-75-1 Activity, Basal E^−6 ([2]; Table 4′): 128% | ZR-75-1 Activity, Basal E^−8 ([2]; Table 4′): 16% | ZR-75-1 Activity, E2 3E^−8 [3, 4]: 13%

CC12CCC3c4ccc(O)cc4CCC3C1CCC21CC=CC(=O)O1 [PB-132-140, 3-hydroxy-1,3,5(10)-estratrien-17(R)-spiro-2′-(4′,5′-dihydro-6′-oxo)pyran]
ZR-75-1 Activity, Basal E^−6 ([2]; Table 4′): 71% | ZR-75-1 Activity, Basal E^−8 ([2]; Table 4′): 15% | ZR-75-1 Activity, E2 3E^−8 [3, 4]: 0%

CN1C(=O)C=C[C@]2(C)C3CC[C@@]4(C)C(CC[C@@]45CCCC(=O)O5)C3CCC12 (stereo partly shown) [EM-1122-CS]
Inhibition Type 2 17β-HSD Activity [% Inh. at 3.10^−5 M] ([1]; Table 5 column 5, bracketed values, 3.10^−5 M): [90] %

CC1(C)CCC2(CCC3C4CCc5cc(OCCN6CCCCC6)ccc5C4CCC32C)OC1=O [EM-1390-CS, 3-(N-piperidyl-ethyl)-1,3,5(10)-estratrien-17(R)-spiro-2′-(5′,5′-dimethyl-6′-oxo)-tetrahydropyran]
IC50 [1]: > 10 µM
